Measurements from publication PMC4303209, “A novel phosphatidylinositol 3-kinase (PI3K) inhibitor directs a potent FOXO-dependent, p53-independent cell cycle arrest phenotype characterized by the differential induction of a subset of FOXO-regulated genes” (Breast Cancer Research : BCR, 2014).

Test system: MCF-7 breast cancer cells
Assay: Microarray gene expression analysis (Agilent whole human genome 4 x 44K; compound vs DMSO, LIMMA log2 fold change)
Assay type: cell-based
Conditions: cell cycle genes

Structure (SMILES): Oc1cccc(-c2nc(N3CCOCC3)c3oc4ncccc4c3n2)c1 [PI-103]
- CDC25B log2FC (Gene 994): -0.0551
- CDC25C log2FC (Gene 995): 1.56
- CDC34 log2FC (Gene 997): 0.51
- CDC42 log2FC (Gene 998): 0.08
- CDK2 log2FC (Gene 1017): -0.44
- CDK3 log2FC (Gene 1018): -0.00896
- CDK4 log2FC (Gene 1019): 0.17
- CDK5 log2FC (Gene 1020): 0.18
- CDK7 log2FC (Gene 1022): 0.77
- CDKN1A log2FC (Gene 1026): -1.23
- CDKN1B log2FC (Gene 1027): 1.12
- CDKN1C log2FC (Gene 1028): 0.88
- CDKN2A log2FC (Gene 1029): 0.30
- CDKN2D log2FC (Gene 1032): 0.90
- CDKN3 log2FC (Gene 1033): 0.04
- CENPA log2FC (Gene 1058): 0.29
- CENPE log2FC (Gene 1062): 1.00
- CENPF log2FC (Gene 1063): 1.50
- CETN2 log2FC (Gene 1069): 0.12
- CHD3 log2FC (Gene 1107): -0.15
- CHEK1 log2FC (Gene 1111): 0.38
- CKS1B log2FC (Gene 1163): 0.12
- CKS2 log2FC (Gene 1164): -0.62
- CLTC log2FC (Gene 1213): 0.15
- PLK3 log2FC (Gene 1263): -1.59
- ATF2 log2FC (Gene 1386): 0.88
- CREBL2 log2FC (Gene 1389): 0.85
- MAPK14 log2FC (Gene 1432): -0.30
- CSNK1A1 log2FC (Gene 1452): -0.04
- CSNK1D log2FC (Gene 1453): -0.30
- CSNK1E log2FC (Gene 1454): -0.52
- CSNK2A1 log2FC (Gene 1457): -0.65
- CTBP1 log2FC (Gene 1487): -0.24
- CTGF log2FC (Gene 1490): -0.35
- CYLD log2FC (Gene 1540): 0.38
- CYP27B1 log2FC (Gene 1594): -0.17
- DAPK3 log2FC (Gene 1613): -0.075
- DDB1 log2FC (Gene 1642): 0.26
- DDIT3 log2FC (Gene 1649): 2.08
- DDX3X log2FC (Gene 1654): -1.13
- DHCR24 log2FC (Gene 1718): -0.73
- DHFR log2FC (Gene 1719): 0.49
- DLG1 log2FC (Gene 1739): 0.12
- DMRT1 log2FC (Gene 1761): 0.0553
- DYNC1I2 log2FC (Gene 1781): 0.63
- DNM2 log2FC (Gene 1785): 0.27
- DRD3 log2FC (Gene 1814): -0.0531
- DUSP1 log2FC (Gene 1843): -0.80
- DUSP3 log2FC (Gene 1845): 0.48
- DYRK1A log2FC (Gene 1859): 0.34
- E2F1 log2FC (Gene 1869): -0.12
- E2F2 log2FC (Gene 1870): -0.38
- E2F3 log2FC (Gene 1871): -0.42
- E2F4 log2FC (Gene 1874): -0.66
- E2F5 log2FC (Gene 1875): 0.15
- E2F6 log2FC (Gene 1876): -0.52
- E4F1 log2FC (Gene 1877): 0.31
- ECT2 log2FC (Gene 1894): 0.84
- EDN3 log2FC (Gene 1908): -0.022
- EGF log2FC (Gene 1950): -0.01
- EGFR log2FC (Gene 1956): 0.48
- EIF4EBP1 log2FC (Gene 1978): 0.0433
- EIF4G2 log2FC (Gene 1982): -0.10
- EMD log2FC (Gene 2010): -0.12
- ENSA log2FC (Gene 2029): -0.0565
- EPS8 log2FC (Gene 2059): 0.46
- ERCC2 log2FC (Gene 2068): -0.27
- ERCC3 log2FC (Gene 2071): -0.11
- ERCC4 log2FC (Gene 2072): 0.06
- ERF log2FC (Gene 2077): 0.40
- ERH log2FC (Gene 2079): -0.38
- ERN1 log2FC (Gene 2081): -0.11
- ETS1 log2FC (Gene 2113): -0.82
- EZH2 log2FC (Gene 2146): 0.46
- FANCG log2FC (Gene 2189): 0.0225
- FEN1 log2FC (Gene 2237): -1.06
- FER log2FC (Gene 2241): 0.26
- FGF2 log2FC (Gene 2247): 0.18
- FGF8 log2FC (Gene 2253): -0.13
- FGF10 log2FC (Gene 2255): -0.00185
- FGFR1 log2FC (Gene 2260): -0.37
- FGFR3 log2FC (Gene 2261): -0.16
- FGFR2 log2FC (Gene 2263): 1.81
- FHL1 log2FC (Gene 2273): -0.0644
- FOXC1 log2FC (Gene 2296): -0.77
- FOXM1 log2FC (Gene 2305): -0.022
- FLNA log2FC (Gene 2316): -0.0267
- FNTB log2FC (Gene 2342): -0.45
- GAS1 log2FC (Gene 2619): 0.76
- GAS2 log2FC (Gene 2620): 0.15
- GAS6 log2FC (Gene 2621): -0.10
- GFI1 log2FC (Gene 2672): 0.03
- GNAI1 log2FC (Gene 2770): 1.07
- GNAI2 log2FC (Gene 2771): -0.26
- GNAI3 log2FC (Gene 2773): 0.53
- SFN log2FC (Gene 2810): -1.15
- GPR3 log2FC (Gene 2827): -0.30
- GPS1 log2FC (Gene 2873): 0.025
- GPS2 log2FC (Gene 2874): 0.19
- GSK3B log2FC (Gene 2932): -0.45
- GSPT1 log2FC (Gene 2935): -0.35
- MSH6 log2FC (Gene 2956): -0.0751
- GTF2H1 log2FC (Gene 2965): 0.32
- H2AFX log2FC (Gene 3014): -0.94
- HCFC1 log2FC (Gene 3054): -0.62
- HDAC1 log2FC (Gene 3065): -0.55
- HDAC2 log2FC (Gene 3066): 0.06
- HGF log2FC (Gene 3082): -0.20
- HHEX log2FC (Gene 3087): -0.29
- FOXA1 log2FC (Gene 3169): 0.13
- HOXA13 log2FC (Gene 3209): 0.04
- HRAS log2FC (Gene 3265): -0.76
- PRMT2 log2FC (Gene 3275): 0.29
- HES1 log2FC (Gene 3280): -1.26
- HSF1 log2FC (Gene 3297): 0.25
- HSPA2 log2FC (Gene 3306): -1.30
- HSP90AA1 log2FC (Gene 3320): 0.72
- ID2 log2FC (Gene 3398): 1.14
- ID3 log2FC (Gene 3399): -0.08
- IFNG log2FC (Gene 3458): -0.04
- IGF1 log2FC (Gene 3479): 0.05
- IGF1R log2FC (Gene 3480): 0.08
- IGF2 log2FC (Gene 3481): 0.0241
- IL1A log2FC (Gene 3552): -0.07
- IL1B log2FC (Gene 3553): 0.035
- IL8 log2FC (Gene 3576): -1.30
- IL12B log2FC (Gene 3593): -0.0227
- ILF3 log2FC (Gene 3609): -0.47
- ILK log2FC (Gene 3611): -0.0473
- INCENP log2FC (Gene 3619): 0.13
- ING2 log2FC (Gene 3622): 0.26
- INHA log2FC (Gene 3623): -0.06
- INSM1 log2FC (Gene 3642): -0.06
- INSR log2FC (Gene 3643): 0.74
- IRF6 log2FC (Gene 3664): 0.56
- ITGB1 log2FC (Gene 3688): 0.58
- JUN log2FC (Gene 3725): -0.94
- JUNB log2FC (Gene 3726): -0.65
- KIF11 log2FC (Gene 3832): 0.83
- KRT18 log2FC (Gene 3875): -0.44
- STMN1 log2FC (Gene 3925): 0.33
- LIF log2FC (Gene 3976): -1.84
- LIG1 log2FC (Gene 3978): 0.0377
- LIG3 log2FC (Gene 3980): -0.50
- LLGL2 log2FC (Gene 3993): -0.0661
- LRP5 log2FC (Gene 4041): -0.40
- MAD2L1 log2FC (Gene 4085): -0.14
- SMAD3 log2FC (Gene 4088): 0.24
- MCM3 log2FC (Gene 4172): 0.0559
- MCM5 log2FC (Gene 4174): 0.04
- MCM7 log2FC (Gene 4176): 0.08
- MDM2 log2FC (Gene 4193): -0.11
- MDM4 log2FC (Gene 4194): -0.14
- RAB8A log2FC (Gene 4218): -0.76
- MIF log2FC (Gene 4282): 0.23
- MKI67 log2FC (Gene 4288): 0.06
